Experimental data from patent US8354403B2, “Pyrrolidine derived beta 3 adrenergic receptor agonists” (Merck Sharp & Dohme Corp., priority 2009, dated 2013).

What follows are molecules tested against T1, human β3 adrenergic receptor (Homo sapiens, UniProt P13945) (assay: Beta-3 agonist in vitro functional assay: cAMP production (LANCE TR-FRET) in CHO cells stably transfected with the cloned β3 receptor). Conditions: Table 4; cAMP, CHO cells; read-out: Human β3 agonist functional activity.
T1 construct: expressed in transfected cells; host or cells: Chinese hamster ovary (CHO) cells, stably transfected
Format: cell-based
Description: Chinese hamster ovary (CHO) cells, stably transfected with the cloned β-adrenergic receptor (β1, β2 or β3) are harvested after 3 days of subculturing. Harvesting of cells is done with Enzyme-free Dissociation Media (Specialty Media). Cells are then counted and resuspended in assay buffer (Hank's Balanced salt solution supplemented with 5 mM HEPES, […]) containing a phosphodiesterase inhibitor (IBMX, 0.6 mM). The reaction is initiated by mixing 6,000 cells in 6 μL with 6 μL Alexa Fluor labeled cAMP antibody (LANCE™ kit) which is then added to an assay well containing 12 μL of compound (diluted in assay buffer to 2× final concentration). The reaction proceeds for 30 minutes at RT and is terminated by the addition of 24 ul detection buffer (LANCE™ kit). The assay plate is then incubated for 1 h at RT and time-resolved fluorescence measured on a Perkin Elmer Envision reader or equivalent. The unknown cAMP level is determined by comparing fluorescence levels to a cAMP standard curve.
The non-selective, full agonist β-adrenergic ligand isoproterenol is used at all three receptors to determine maximal stimulation. […] Data are analyzed using Microsoft Excel and Graphpad Prism or an internally developed data analysis software package.

T1 sequence (P13945 whole entry): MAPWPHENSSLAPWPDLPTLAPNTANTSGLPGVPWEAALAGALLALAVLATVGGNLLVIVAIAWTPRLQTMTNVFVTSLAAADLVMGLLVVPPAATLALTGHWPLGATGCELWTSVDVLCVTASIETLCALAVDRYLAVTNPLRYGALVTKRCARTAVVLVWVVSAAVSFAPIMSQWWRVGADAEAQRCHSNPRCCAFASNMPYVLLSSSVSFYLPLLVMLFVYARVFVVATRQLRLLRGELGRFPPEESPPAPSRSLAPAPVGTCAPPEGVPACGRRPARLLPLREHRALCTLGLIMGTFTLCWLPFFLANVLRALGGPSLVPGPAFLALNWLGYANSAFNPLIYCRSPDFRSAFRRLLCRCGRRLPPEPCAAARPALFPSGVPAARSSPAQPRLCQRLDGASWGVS

EC50 [nM]	SMILES
10 to 99.9	O=C(c1ccc(C[C@@H]2CC[C@H]([C@H](O)c3ccccc3)N2)cc1)N1CC2CC(n3ncnn3)CC2C1 (some centres unmarked) [Example 19]
100 to 999	O=C(c1ccc(C[C@@H]2CC[C@H]([C@H](O)c3ccccc3)N2)cc1)N1Cc2cnn(C(F)(F)F)c2C1 [Example 30]

Same assay, conditions: Table 5; cAMP, CHO cells; read-out: Human β3 agonist functional activity

EC50 [nM]	SMILES
10 to 99.9	O=C(c1ccc(C[C@@H]2CC[C@H]([C@H](O)c3ccccc3)N2)cc1)N1CCC(S(=O)(=O)c2cc(F)ccc2F)CC1 [Example 140]
100 to 999	O=C(c1ccc(C[C@@H]2CC[C@H]([C@H](O)c3ccccc3)N2)cc1)N1CCC(n2cnnc2)CC1 [Example 91]
10 to 99.9	O=C(c1ccc(C[C@@H]2CC[C@H]([C@H](O)c3ccccc3)N2)cc1)N1CCC(S(=O)(=O)c2ccc(F)cc2F)CC1 [Example 139]
100 to 999	O=C(c1ccc(C[C@@H]2CC[C@H]([C@H](O)c3cccnc3)N2)cc1)N1CCC(n2nccn2)CC1 [Example 94]
10 to 99.9	CC(c1ccccn1)C1CCN(C(=O)c2ccc(C[C@@H]3CC[C@H]([C@H](O)c4ccccc4)N3)cc2)CC1 (some centres unmarked) [Example 164]

Same assay, conditions: Table 8; Beta-3 agonist in vitro functional assay; read-out: Human β3 agonist functional activity

EC50 [nM]	SMILES
10 to 99.9	O=C(c1ccc(CC2CCC(C(O)c3ccccc3)N2)cc1)N1CCC2(CCCC2=NO)CC1 (centres unmarked) [Example 317]
10 to 99.9	O=C1NC2(CCN(C(=O)c3ccc(C[C@@H]4CC[C@H]([C@H](O)c5ccccc5)N4)cc3)CC2)Oc2ccccc21 [Example 332]
10 to 99.9	O=C(c1ccc(C[C@@H]2CC[C@H]([C@H](O)c3ccccc3)N2)cc1)N1CCC2(CC1)C(=O)Oc1ccccc12 [Example 290]
10 to 99.9	O=C(c1ccc(C[C@@H]2CC[C@H]([C@H](O)c3ccccc3)N2)cc1)N1CCC2(CC1)NCNC2=O [Example 258]
10 to 99.9	O=C(c1ccc(C[C@@H]2CC[C@H]([C@H](O)c3ccccc3)N2)cc1)N1CCC2(CC1)NC(=O)N(Cc1ccccc1)C2=O [Example 269]

Same assay, conditions: Table 9; Beta-3 agonist in vitro functional assay; read-out: Human β3 agonist functional activity

EC50 [nM]	SMILES
10 to 99.9	O=C(c1ccc(C[C@@H]2CC[C@H]([C@H](O)c3ccccc3)N2)cc1)N1CCN(c2ccc[nH]c2=O)CC1 [Example 387]
10 to 99.9	O=C(c1ccc(C[C@@H]2CC[C@H]([C@H](O)c3ccccc3)N2)cc1)N1CCN(c2ncccc2O)CC1 [Example 360]
10 to 99.9	O=C(c1ccc(C[C@@H]2CC[C@H]([C@H](O)c3ccccc3)N2)cc1)N1CCN(c2nsc3ccccc23)CC1 [Example 386]
10 to 99.9	O=C(c1ccc(C[C@@H]2CC[C@H]([C@H](O)c3ccccc3)N2)cc1)N1CCN(Cc2ccon2)CC1 [Example 393]
10 to 99.9	O=C(c1ccc(C[C@@H]2CC[C@H]([C@H](O)c3ccccc3)N2)cc1)N1CCN(c2nccc(-c3ccccc3)n2)CC1 [Example 376]

Same assay, conditions: Table 10; Beta-3 agonist in vitro functional assay; read-out: Human β3 agonist functional activity

EC50 [nM]	SMILES
10 to 99.9	CCCCN(C)C(=O)C(C)N1CCN(C(=O)c2ccc(C[C@@H]3CC[C@H]([C@H](O)c4ccccc4)N3)cc2)CC1 (some centres unmarked) [Example 514]
100 to 999	CCNC(=O)C(C)N1CCN(C(=O)c2ccc(C[C@@H]3CC[C@H]([C@H](O)c4ccccc4)N3)cc2)CC1 (some centres unmarked) [Example 436]
10 to 99.9	Cc1c(CNC(=O)C(C)N2CCN(C(=O)c3ccc(C[C@@H]4CC[C@H]([C@H](O)c5ccccc5)N4)cc3)CC2)cnn1C (some centres unmarked) [Example 464]
10 to 99.9	CC(C(=O)N1CCc2ncccc2C1)N1CCN(C(=O)c2ccc(C[C@@H]3CC[C@H]([C@H](O)c4ccccc4)N3)cc2)CC1 (some centres unmarked) [Example 507]

Same assay, conditions: Table 11; cAMP, CHO cells; read-out: Human β3 agonist functional activity

EC50 [nM]	SMILES
100 to 999	O=C(c1ccc(C[C@@H]2CC[C@H]([C@H](O)c3ccccc3)N2)cc1)N1CCN2C(=O)CCC2C1 (some centres unmarked) [Example 550]
100 to 999	O=C1CN(C(=O)c2ccc(C[C@@H]3CC[C@H]([C@H](O)c4ccccc4)N3)cc2)CCN1Cc1ccccn1 [Example 545]

SMILES	EC50 [nM]
O=C(c1ccc(C[C@@H]2CC[C@H]([C@H](O)c3ccccc3)N2)cc1)N1CC2CCC(C1)N2Cc1ccccn1 [Example 535]	100 to 999

Same assay, conditions: Table 12; human β3 functional activity given as ranges; read-out: Human β3 agonist functional activity

EC50 [nM]	SMILES
10 to 99.9	CC(c1ccccc1F)N1CCN(C(=O)c2ccc(CC3CCC(C(O)c4ccccc4)N3)cc2)CC1 (single isomer, unassigned) [Example 574]

Same assay, conditions: Table 13; human Beta-3 agonist functional activity given as range; read-out: Human β3 agonist functional activities

EC50 [nM]	SMILES
1 to 9.9	O=C(c1ccc(C[C@@H]2CC[C@H]([C@H](O)c3ccccc3)N2)c(Br)c1)N1CCC2(CCOC2=O)CC1 [Example 610]
